Test results published in patent US20240083857A1, “2-Methyl-Quinazolines” (Bayer Pharma Aktiengesellschaft, priority 2017, published 2024).
Structures can show the parent of a compound that is named as a salt.

Experiments:
[1] = molecular target: Epidermal Growth Factor Receptor (EGFR) (Homo sapiens (Human), UniProt P00533); assay: EGFR kinase assay (TR-FRET); format: biochemical; settings: values given in μM; read-out: EGFR kinase inhibition IC50
In short: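 Read-out is the 665/620 nm HTRF ratio, from a Tb-cryptate anti-phosphotyrosine antibody and streptavidin-XL665 bound to phosphorylated biotin-peptide substrate. The enzyme, A431-derived EGFR (~3 U/ml), was given 15 min compound pre-binding at 22° C in Hepes pH 7.0 with Mg2+/Mn2+ before reaction.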

[2] = molecular target: human SOS1 (nucleotide exchange of K-Ras^G12C) (Homo sapiens, UniProt Q07889); assay: Biochemical assay 2: K-Ras^G12C activation assay by hSOS1 at high GTP concentration (HTRF); settings: high GTP; read-out: Assay 2 (KRAS-Activation by SOS high GTP) activity expressed as IC50

Epidermal Growth Factor Receptor (EGFR), sequence (P00533 25-1210): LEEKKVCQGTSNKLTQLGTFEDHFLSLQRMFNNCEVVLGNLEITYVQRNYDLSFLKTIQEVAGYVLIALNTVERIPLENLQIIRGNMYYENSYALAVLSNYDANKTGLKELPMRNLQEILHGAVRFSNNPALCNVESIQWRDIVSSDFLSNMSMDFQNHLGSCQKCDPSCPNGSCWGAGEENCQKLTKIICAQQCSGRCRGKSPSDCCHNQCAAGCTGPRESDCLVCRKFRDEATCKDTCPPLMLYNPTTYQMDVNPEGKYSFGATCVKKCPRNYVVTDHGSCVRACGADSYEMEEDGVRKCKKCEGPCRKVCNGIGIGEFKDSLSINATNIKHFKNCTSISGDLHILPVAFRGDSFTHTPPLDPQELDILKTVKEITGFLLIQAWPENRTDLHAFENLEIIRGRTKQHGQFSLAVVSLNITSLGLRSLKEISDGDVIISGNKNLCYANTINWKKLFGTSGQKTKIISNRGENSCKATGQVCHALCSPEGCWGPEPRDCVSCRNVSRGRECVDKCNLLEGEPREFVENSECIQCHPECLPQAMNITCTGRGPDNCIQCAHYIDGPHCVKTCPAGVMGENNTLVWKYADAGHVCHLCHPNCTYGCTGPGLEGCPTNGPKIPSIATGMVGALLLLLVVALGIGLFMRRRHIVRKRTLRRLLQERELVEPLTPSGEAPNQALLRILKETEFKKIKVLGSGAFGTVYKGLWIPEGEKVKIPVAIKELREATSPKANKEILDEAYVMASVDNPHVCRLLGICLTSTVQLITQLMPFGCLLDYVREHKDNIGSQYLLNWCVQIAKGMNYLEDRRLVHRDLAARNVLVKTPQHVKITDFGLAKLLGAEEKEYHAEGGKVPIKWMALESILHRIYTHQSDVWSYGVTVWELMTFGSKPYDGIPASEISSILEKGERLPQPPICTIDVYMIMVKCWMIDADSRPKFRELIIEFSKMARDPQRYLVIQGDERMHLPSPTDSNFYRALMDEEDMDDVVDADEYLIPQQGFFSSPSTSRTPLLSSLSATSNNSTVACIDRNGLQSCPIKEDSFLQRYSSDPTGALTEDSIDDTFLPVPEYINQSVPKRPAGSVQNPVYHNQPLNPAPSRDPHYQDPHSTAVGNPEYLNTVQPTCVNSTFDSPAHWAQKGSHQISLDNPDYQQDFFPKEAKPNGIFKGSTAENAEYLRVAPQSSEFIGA

Structure (SMILES)	IC50 [1]	IC50 [2]
COc1cc2nc(C)nc(NC(C)c3ccc(-c4cc(C)n(C)c4C#N)s3)c2cc1OC (centres unmarked) [Example 286, 3-(5-{1-[(6,7-dimethoxy-2-methylquinazolin-4-yl)amino]ethyl}thiophen-2-yl)-1,5-dimethyl-1H-pyrrole-2-carbonitrile]	> 20 µM	17400 nM
COc1cc2nc(C)nc(NC(C)c3ccc(-c4cscc4C#N)s3)c2cc1OC (centres unmarked) [Example 287, 5-{1-[(6,7-dimethoxy-2-methylquinazolin-4-yl)amino]ethyl}-2,3′-bithiophene-4′-carbonitrile]	> 20 µM	1860 nM
CCN(CC)Cc1ccccc1-c1ccc(C(C)Nc2nc(C)nc3cc(OC)c(OC)cc23)s1 (centres unmarked) [Example 288, N-[1-(5-{2-[(diethylamino)methyl]phenyl}thiophen-2-yl)ethyl]-6,7-dimethoxy-2-methylquinazolin-4-amine]	> 20 µM	140 nM
COc1cc2nc(C)nc(NC(C)c3ccc(-c4ccccc4CN4CCCC(C(N)=O)C4)s3)c2cc1OC (centres unmarked) [Example 290, 1-[2-(5-{1-[(6,7-dimethoxy-2-methylquinazolin-4-yl)amino]ethyl}thiophen-2-yl)benzyl]piperidine-3-carboxamide]	> 20 µM	116 nM
COc1cc2nc(C)nc(NC(C)c3ccc(-c4ccccc4CN(C)CC(F)F)s3)c2cc1OC (centres unmarked) [Example 291, N-{1-[5-(2-{[(2,2-difluoroethyl)(methyl)amino]methyl}phenyl)thiophen-2-yl]ethyl}-6,7-dimethoxy-2-methylquinazolin-4-amine]	> 20 µM	1320 nM
COc1cc2nc(C)nc(NC(C)c3ccc(-c4cc(Cl)ccc4CN)s3)c2cc1OC (centres unmarked) [Example 292, N-[1-{5-[2-(aminomethyl)-5-chlorophenyl]thiophen-2-yl}ethyl]-6,7-dimethoxy-2-methylquinazolin-4-amine]	> 20 µM	38.7 nM
COc1cc2nc(C)nc(NC(C)c3ccc(-c4ccc(F)cc4CNC(=O)c4ncc[nH]4)s3)c2cc1OC (centres unmarked) [Example 293, N-[2-(5-{1-[(6,7-dimethoxy-2-methylquinazolin-4-yl)amino]ethyl}thiophen-2-yl)-5-fluorobenzyl]-1H-imidazole-2-carboxamide]	> 20 µM	3920 nM
COc1cc2nc(C)nc(NC(C)c3ccc(-c4ccc(F)cc4CNC(=O)c4cnc[nH]4)s3)c2cc1OC (centres unmarked) [Example 294, N-[2-(5-{1-[(6,7-dimethoxy-2-methylquinazolin-4-yl)amino]ethyl}thiophen-2-yl)-5-fluorobenzyl]-1H-imidazole-5-carboxamide]	> 20 µM	3930 nM
COc1cc2nc(C)nc(NC(C)c3ccc(-c4ccc(F)cc4CNC(=O)CNCC(F)(F)F)s3)c2cc1OC (centres unmarked) [Example 295, N-[2-(5-{1-[(6,7-dimethoxy-2-methylquinazolin-4-yl)amino]ethyl}thiophen-2-yl)-5-fluorobenzyl]-N^2-(2,2,2-trifluoroethyl)glycinamide]	> 20 µM	1470 nM
COc1cc2nc(C)nc(NC(C)c3ccc(-c4ccccc4CNCCO)s3)c2cc1OC (centres unmarked) [Example 297, 2-{[2-(5-{1-[(6,7-dimethoxy-2-methylquinazolin-4-yl)amino]ethyl}thiophen-2-yl)benzyl]amino}ethanol]	> 20 µM	57.8 nM
COc1cc2nc(C)nc(NC(C)c3ccc(-c4ccccc4CN(C)CCO)s3)c2cc1OC (centres unmarked) [Example 298, 2-{[2-(5-{1-[(6,7-dimethoxy-2-methylquinazolin-4-yl)amino]ethyl}thiophen-2-yl)benzyl](methyl)amino}ethanol]	> 20 µM	49.3 nM
COc1cc2nc(C)nc(NC(C)c3ccc(-c4ccc(F)cc4CNC(=O)CNc4ccccc4)s3)c2cc1OC (centres unmarked) [Example 299, N-[2-(5-{1-[(6,7-dimethoxy-2-methylquinazolin-4-yl)amino]ethyl}thiophen-2-yl)-5-fluorobenzyl]-N^2-phenylglycinamide]	> 20 µM	1230 nM
COc1cc2nc(C)nc(NC(C)c3ccc(-c4ccccc4CNCC(F)(F)F)s3)c2cc1OC (centres unmarked) [Example 300, 6,7-di methoxy-2-methyl-N-{1-[5-(2-{[(2,2,2-trifluoroethyl)amino]methyl}phenyl)thiophen-2-yl]ethyl}quinazolin-4-amine]	> 20 µM	3070 nM
COc1cc2nc(C)nc(NC(C)c3ccc(-c4ccccc4CNc4ccccn4)s3)c2cc1OC (centres unmarked) [Example 301, 6,7-di methoxy-2-methyl-N-[1-(5-{2-[(pyridin-2-ylamino)methyl]phenyl}thiophen-2-yl)ethyl]quinazolin-4-amine]	> 20 µM	931 nM
COc1cc2nc(C)nc(NC(C)c3ccc(-c4ccccc4CNc4cc[nH]n4)s3)c2cc1OC (centres unmarked) [Example 302, 6,7-dimethoxy-2-methyl-N-[1-(5-{2-[(1H-pyrazol-3-ylamino)methyl]phenyl}thiophen-2-yl)ethyl]quinazolin-4-amine]	> 20 µM	1260 nM
COc1cc2nc(C)nc(NC(C)c3ccc(-c4ccccc4CNCC(=O)N4CCc5ccccc5C4)s3)c2cc1OC (centres unmarked) [Example 303, 1-(3,4-dihydroisoquinolin-2(1H)-yl)-2-{[2-(5-{1-[(6,7-dimethoxy-2-methylquinazolin-4-yl)amino]ethyl}thiophen-2-yl)benzyl]amino}ethanone]	> 20 µM	840 nM
COc1cc2nc(C)nc(NC(C)c3ccc(-c4ccc(F)cc4CNCc4nccn4C)s3)c2cc1OC (centres unmarked) [Example 304, N-[1-{5-[4-fluoro-2-({[(1-methyl-1H-imidazol-2-yl)methyl]amino}methyl)phenyl]thiophen-2-yl}ethyl]-6,7-dimethoxy-2-methylquinazolin-4-amine]	> 20 µM	469 nM
COc1cc2nc(C)nc(NC(C)c3ccc(-c4ccccc4CN4CCNCC4)s3)c2cc1OC (centres unmarked) [Example 305, 6,7-dimethoxy-2-methyl-N-[1-{5-[2-(piperazin-1-ylmethyl)phenyl]thiophen-2-yl}ethyl]quinazolin-4-amine hydrochloride]	> 20 µM	55.2 nM
COc1cc2nc(C)nc(NC(C)c3ccc(-c4ccc(F)cc4CNC(C)=O)s3)c2cc1OC (centres unmarked) [Example 307, N-[2-(5-{1-[(6,7-dimethoxy-2-methylquinazolin-4-yl)amino]ethyl}thiophen-2-yl)-5-fluorobenzyl]acetamide]	> 20 µM	593 nM
COc1cc2nc(C)nc(NC(C)c3ccc(-c4ccccc4CN4CCN(C)CC4)s3)c2cc1OC (centres unmarked) [Example 308, 6,7-dimethoxy-2-methyl-N-[1-(5-{2-[(4-methylpiperazin-1-yl)methyl]phenyl}thiophen-2-yl)ethyl]quinazolin-4-amine]	> 20 µM	229 nM
COc1cc2nc(C)nc(NC(C)c3ccc(-c4ccccc4CN[C@H]4CCN(C)C4=O)s3)c2cc1OC (stereo partly drawn) [Example 309, (3S)-{[2-(5-{1-[(6,7-dimethoxy-2-methylquinazolin-4-yl)amino]ethyl}thiophen-2-yl)benzyl]amino}-1-methylpyrrolidin-2-one]	> 20 µM	690 nM
COc1cc2nc(C)nc(NC(C)c3ccc(-c4ccc(F)cc4CNC(=O)c4cc[nH]n4)s3)c2cc1OC (centres unmarked) [Example 310, N-[2-(5-{1-[(6,7-dimethoxy-2-methylquinazolin-4-yl)amino]ethyl}thiophen-2-yl)-5-fluorobenzyl]-1H-pyrazole-3-carboxamide]	> 20 µM	1340 nM
